# In patent US4085224A, “Method of increasing feed utilization” (Eli Lilly and Company, priority 1976, dated 1978):
# Experiments:
# [1] = test system: Staphylococcus aureus (H-Heatley) NRRL B-314; assay: turbidometric assay on semiautomated system (Autoturb), relative gram-positive activity; assay type: cell-based; conditions: relative to A-28086 factor A (standard); nutrient broth pH 7, four hours at 37° C.
# Protocol: The C2 -C6 -acyl ester derivatives of A-28086 factor A also have antibacterial and antifungal activity. In one aspect, these derivatives have increased gram-positive activity. The relative gram-positive activities of certain of these derivatives were compared with the activity of factor A. The compounds were tested by turbidometric assay on a semiautomated system (Autoturb® microbiological assay system, Elanco) described by N. R. Kuzel and F. W. Kavanaugh in J. Pharmaceut. Sci. 60 (5), 764 and 767 (1971). In testing the A-28086 antibiotics, the following test parameters were used: Staphylococcus aureus (H-Heatley) NRRL B-314 in a nutrient broth medium (pH 7), incubated for four hours at 37° C. Test samples and the standard were dissolved in methanol-water (10:90). The standard, A-28086 factor A, was presented to the Autoturb® carrousel at concentrations of 2, 3, 4, and 5 mcg/ml. Test compounds were diluted to contain approximately 3 or 4 mcg of activity per ml, as presented to the carrousel. The relative activities of test compounds, as compared to that of the standard, are given below: […]
# rumen fluid = assay: in vitro rumen fluid volatile fatty acid production; parameters: species or system steer; conditions: 1 ppm in rumen fluid, 16 hours at 38° C.
# From the text: As discussed hereinabove, efficiency of carbohydrate utilization in ruminants is increased by treatments which stimulate the amimal's rumen flora to produce propionate compounds rather than acetate or butyrate compounds. The efficiency of feed use can be monitored by observing the production and concentration of propionate compounds in the rumen, using the following methods:
# Remen fluid is obtained from a steer with a surgically-installed fistula opening into the rumen. The steer is maintained on a high-grain ration. A sample of rumen fluid is strained through four layers of cheesecloth, and the filtrate is collected. The particulate matter retained by the cheesecloth is resuspended in enough physiological buffer to return it to the original volume of the rumen fluid, and this suspension is strained again. The buffer used has the following composition:
# The two filtrates are combined and allowed to stand until particulate matter separates to the top. The clear layer is separated, diluted with the same buffer (1:1) and then adjusted to between pH 6.8 to 7.0.
# The diluted rumen fluid (10 ml) is placed in a 25-ml flask with 40 mg of the above-described feed, an additional 1 mg of soybean protein, and the compound to be tested. Four replicate flasks are used per treatment. Two sets of four control flasks each are also employed. A zero-time control and an incubated 16-hour control are used. All test flasks are incubated for 16 hours at 38° C. […] The samples are allowed to settle, and the supernatants are analyzed by gas chromatography for propionate, acetate, and butyrate compounds.
smiles,measurement,setting,value
CCCC(=O)OC1C=CC2(OC(C(CC)C(=O)C(C)C(O)C(C)C3OC(C(CC)C(=O)O)C(C)CC3C)C(C)CC2C)OC12CCC(C)(C1CCC(O)(CC)C(C)O1)O2 (stereo not shown),Relative G+ Activity,[1],8
same,"Ratio of Treated to Control, Molar % acetate",rumen fluid,0.91
same,"Ratio of Treated to Control, Molar % butyrate",rumen fluid,0.81
same,"Ratio of Treated to Control, Molar % propionate",rumen fluid,1.56
same,"Ratio of Treated to Control, Total VFA mM/l",rumen fluid,1.19
CCCCCC(=O)OC1C=CC2(OC(C(CC)C(=O)C(C)C(O)C(C)C3OC(C(CC)C(=O)O)C(C)CC3C)C(C)CC2C)OC12CCC(C)(C1CCC(O)(CC)C(C)O1)O2 (stereo not shown),Relative G+ Activity,[1],20
same,"Ratio of Treated to Control, Molar % acetate",rumen fluid,0.86
same,"Ratio of Treated to Control, Molar % butyrate",rumen fluid,0.97
same,"Ratio of Treated to Control, Molar % propionate",rumen fluid,1.57
same,"Ratio of Treated to Control, Total VFA mM/l",rumen fluid,0.99
CCC(=O)OC1C=CC2(OC(C(CC)C(=O)C(C)C(O)C(C)C3OC(C(CC)C(=O)O)C(C)CC3C)C(C)CC2C)OC12CCC(C)(C1CCC(O)(CC)C(C)O1)O2 (stereo not shown),Relative G+ Activity,[1],7
same,"Ratio of Treated to Control, Molar % acetate",rumen fluid,0.90
same,"Ratio of Treated to Control, Molar % butyrate",rumen fluid,0.68
same,"Ratio of Treated to Control, Molar % propionate",rumen fluid,1.73
same,"Ratio of Treated to Control, Total VFA mM/l",rumen fluid,1.25
CCCCC(=O)OC1C=CC2(OC(C(CC)C(=O)C(C)C(O)C(C)C3OC(C(CC)C(=O)O)C(C)CC3C)C(C)CC2C)OC12CCC(C)(C1CCC(O)(CC)C(C)O1)O2 (stereo not shown),Relative G+ Activity,[1],14
same,"Ratio of Treated to Control, Molar % acetate",rumen fluid,0.92
same,"Ratio of Treated to Control, Molar % butyrate",rumen fluid,0.79
same,"Ratio of Treated to Control, Molar % propionate",rumen fluid,1.55
same,"Ratio of Treated to Control, Total VFA mM/l",rumen fluid,1.18
CCC(C(=O)O)C1OC(C(C)C(O)C(C)C(=O)C(CC)C2OC3(C=CC(OC(C)=O)C4(CCC(C)(C5CCC(O)(CC)C(C)O5)O4)O3)C(C)CC2C)C(C)CC1C (stereo not shown) [A-28086 factor A acetyl ester derivative],Relative G+ Activity,[1],2.5
same,"Ratio of Treated to Control, Molar % acetate",rumen fluid,0.79
same,"Ratio of Treated to Control, Molar % butyrate",rumen fluid,0.76
same,"Ratio of Treated to Control, Molar % propionate",rumen fluid,2.04
same,"Ratio of Treated to Control, Total VFA mM/l",rumen fluid,1.04
